One data set relates to 5XFAD mice. The data set is described as follows: Conditioned fear task after ERGO treatment. Type of data set: in vivo, mouse. Particulars: ERGO-treated 5XFAD mice, novel context, 25 hours following training. How it is done:
To address our primary question whether longitudinal consumption of ERGO as a potent antioxidant benefit the brain, three cohorts of animals (n=12 non-treated WT control, n=12 non-treated 5XFAD, and n=18 ERGO-treated 5XFAD) were used (FIG. 3.2A). Starting at the age of 8 weeks, the animals were treated with high doses of ERGO solution (25-50 mg/Kg) formulated in double distilled (dd) water via oral gavage three times a week over the course of eight weeks. To reduce bias in the behavioral experiments with regard to the potential stress during gavage treatment, non-treated animals underwent the identical gavage process with the vehicle, water, only. The efficacy of the therapy was evaluated by behavioral testing, followed by three different non-invasive PET imaging sessions to assess biomarkers related to AD pathology. In addition to assessing Abeta levels and glucose metabolism using the [^11C]PIB and [^18F]FDG probes, respectively; we also tested for the first time whether oxidative stress could be used as an indicator of response to therapy using the [^11C]ERGO PET radioligand. Finally, animals were euthanized, and the brains were collected for immunohistochemical analysis. […]
Mice were placed in a sound-attenuating chamber with a wire grid floor capable of transmitting an electric shock. All movements were monitored by cameras fixed to the inside of the doors. […]

For another data set, the system named is glucose metabolism. As to the kind of experiment: [18F]FDG PET imaging of glucose metabolism after ERGO treatment. It is filed as in vivo, mouse. As to conditions: 6-month-old 5XFAD, ERGO 6 doses each 50 mg/Kg during 2 weeks, versus non-treated 5XFAD, n=3. How it is done: The brain consumes a significant amount of glucose, approximately 25% of the body's glucose. It is well known that glucose metabolism is diminished in the early onset of AD. Therefore, [^18F]FDG PET imaging to assess glucose levels could be used for AD diagnosis. For this purpose, three cohorts of age-matched mice (6-month-old, n=3 for each cohort), including WT, non-treated 5XFAD and ERGO-treated 5XFAD (6 doses, each 50 mg/Kg during the course of 2 weeks) were studied. Afterward, animals were injected with [^18F]FDG probe (15 MBq, 100 μL/mouse) and underwent […] dynamic PET scans and CT scans.
The dynamic acquisition was divided into twelve 5-second frames, four 60-second frames, five 120-second frames, three 5-min frames, and six 10-min scans. The data from all possible lines of response (LOR) were saved in the list mode raw data format. The raw data were then binned into 3D sinograms with a span of 3 and ring difference of 47. The images were reconstructed into transaxial slices (128×128×159) with voxel sizes of 0.0815×0.0815×0.0796 cm^3, using the MAP algorithm with 16 subsets, 4 iterations, and a beta of 0.0468. For anatomical co-registration, immediately following the PET scans, the mice received a CT scan in a NanoSPECT/CT (Mediso, Wash. D.C.) at an X-ray beam intensity of 90 mAs and x-ray peak voltage of 45 kVp. […]

Data set [1] is described as follows: Ex-vivo cut-and-count whole-body biodistribution of I.V.-injected [11C]ERGO in WT mice. On the set-up: species or system mouse. Particulars: for brain concentration: after cardiac perfusion. On the procedure: At 5 or 10 min post injection, anesthetized mice were laid on the shallow tray filled with crushed ice and the thoracic cavity was accessed using a scalpel after making […] mid-line incision from the abdominal area. After careful separation of the liver from the diaphragm, the thoracic opening was stabilized with a retractor. Perfusion was performed as we described in the past. Following removal of air bubbles, approximately 30 mL (pH7.4) of ice-cold PBS buffer is slowly injected in the left ventricle toward the ascending aorta using a 25-G syringe while the right atrium was snipped off using a curved point squeeze snip scissors to facilitate drainage of the systemic venous return. Then, 30 mL of 4% paraformaldehyde (PFA, pH 7.4) was perfused. When completed, tissues were harvested and weighed before counting using the automatic gamma counter (Hidex).
Cohorts of WT mice were injected with [^11C]ERGO probe, followed by cardiac perfusion 5 (n=5), 10 (n=5) and 30 (n=6) minutes after injection before tissues were collected for activity counting.

Where [2] appears, read: about 30 minutes after injection.
[3] abbreviates: initial value (5 minutes post I.V. injection).

Structures are written as SMILES.

`C[N+](C)(C)[C@@H](Cc1c[nH]c(=S)[nH]1)C(=O)[O-]` [ERGO, L-ergothioneine]: in the data set with 5XFAD mice, the “cue-based recall, freezing time while the cue was played” value is reported as ~50%. Moreover, the “glucose levels in the brain ([18F]FDG uptake, SUV)” value in the data set with glucose metabolism was “significantly elevated”.

As to `C[N+](C)([11CH3])[C@@H](Cc1c[nH]c(=S)[nH]1)C(=O)[O-]` [[^11C]ERGO], in data set [1] (setting [2]), the blood concentration is 0.33 % ID/g, the eyes concentration stood at 0.52 % ID/g, the heart concentration is reported as 0.51 % ID/g and the kidneys concentration was 4.2 % ID/g. Besides, in data set [1] (setting [2]), the liver concentration was 2.86 % ID/g, the small intestine concentration amounted to 0.64 % ID/g, the spleen concentration was 0.97 % ID/g and the brain concentration was 0.35 % ID/g. Moreover, in data set [1] (setting [3]), the blood concentration stood at 0.39 % ID/g, the eyes concentration amounted to 0.11 % ID/g, the heart concentration was 0.13 % ID/g and the kidneys concentration amounted to 1.33 % ID/g. In data set [1] (setting [3]), this compound returned a liver concentration of 0.61 % ID/g, a small intestine concentration of 0.2 % ID/g, a spleen concentration of 0.2 % ID/g and a brain concentration of 0.13 % ID/g.

Source of the values: patent publication US20230097883A1, “ERGOTHIONEINE PET COMPOUNDS AND METHODS OF USE THEREOF” (VANDERBILT UNIVERSITY, priority 2021, published 2023).
